Measured values from patent US9353082B2, “Pharmaceutical compounds” (BIAL—PORTELA & CA, S.A., priority 2008, dated 2016).

Assays:
[1] = target: T1, FAAH (Mus musculus, UniProt O08914); assay: In vivo FAAH inhibition after oral dosing, remaining activity in brain homogenate (BRh, central nervous tissue); design: species or system NMRI mice; settings: brain homogenate
T1 construct: A fragment of liver, left lung lobe and brain without cerebellum were removed; from tissue; host or cells: male NMRI mice; brain (without cerebellum) and liver homogenates
T1 sequence (O08914 1-579): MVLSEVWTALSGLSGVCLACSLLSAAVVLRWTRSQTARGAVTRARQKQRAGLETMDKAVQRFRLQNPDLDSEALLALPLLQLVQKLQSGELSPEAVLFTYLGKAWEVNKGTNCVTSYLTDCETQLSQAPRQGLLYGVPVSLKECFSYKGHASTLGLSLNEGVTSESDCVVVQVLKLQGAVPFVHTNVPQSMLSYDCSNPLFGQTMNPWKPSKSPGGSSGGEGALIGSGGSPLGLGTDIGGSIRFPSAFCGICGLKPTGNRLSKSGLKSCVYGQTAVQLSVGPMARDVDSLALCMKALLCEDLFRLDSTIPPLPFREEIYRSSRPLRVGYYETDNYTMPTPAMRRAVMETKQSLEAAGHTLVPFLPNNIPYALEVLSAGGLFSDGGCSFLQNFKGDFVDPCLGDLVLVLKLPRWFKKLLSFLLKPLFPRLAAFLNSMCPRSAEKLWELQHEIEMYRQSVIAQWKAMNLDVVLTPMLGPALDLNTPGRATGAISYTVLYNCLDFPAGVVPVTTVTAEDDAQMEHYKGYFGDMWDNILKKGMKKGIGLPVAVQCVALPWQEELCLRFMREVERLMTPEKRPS
Outline: (§1)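 Remaining FAAH activity is given as % of vehicle-treated controls after blank subtraction, measured by radiolabelled AEA hydrolysis (2 μM AEA, 5 nM 3H-AEA, 37 °C) in brain (10 min) or liver (7 min) homogenates. These came from fasted male NMRI mice dosed orally at 30 or 3 mg/kg.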

[2] = target: T2, FAAH (Rattus norvegicus, UniProt P97612); assay: In vitro FAAH activity in rat brain membranes, 3H-AEA substrate, % of control; type: biochemical, Wistar rats; settings: low value = strong inhibitor; for In Vitro FAAH activity, 100 nM: 100 nM test compound
T2 construct: Frozen brains (without cerebellum) from Wistar rats were used; from tissue; host or cells: Wistar rat brain (without cerebellum), washed membrane pellets
T2 sequence (P97612 1-579): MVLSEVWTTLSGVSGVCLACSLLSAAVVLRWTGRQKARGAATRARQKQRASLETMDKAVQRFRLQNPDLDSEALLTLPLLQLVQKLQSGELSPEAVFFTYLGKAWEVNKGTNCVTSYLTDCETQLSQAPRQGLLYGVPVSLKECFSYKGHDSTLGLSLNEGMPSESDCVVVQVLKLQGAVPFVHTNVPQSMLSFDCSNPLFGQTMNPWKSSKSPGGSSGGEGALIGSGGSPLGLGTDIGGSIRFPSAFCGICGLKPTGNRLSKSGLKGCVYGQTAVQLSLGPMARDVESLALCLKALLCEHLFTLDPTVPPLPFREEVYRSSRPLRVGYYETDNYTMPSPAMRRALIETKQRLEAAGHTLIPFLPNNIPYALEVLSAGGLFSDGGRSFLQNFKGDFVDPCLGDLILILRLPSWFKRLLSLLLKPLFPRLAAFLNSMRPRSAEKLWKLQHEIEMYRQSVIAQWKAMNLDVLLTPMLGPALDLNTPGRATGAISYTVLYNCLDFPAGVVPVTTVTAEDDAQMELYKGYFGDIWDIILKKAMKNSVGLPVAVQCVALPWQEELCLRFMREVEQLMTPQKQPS
Outline: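 FAAH activity measured as 3H-ethanolamine released from 2 μM [3H]AEA over 10 min by rat brain membrane preparation, after 15 min 37 °C preincubation with test compound at 10 or 0.1 μM. Charcoal-separated supernatant scintillation-counted; values expressed as % of control minus no-protein blank.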

[3] = target: T1, FAAH; assay: In vivo FAAH inhibition after oral dosing, remaining activity in liver homogenate (LVh, peripheral tissue); design: species or system NMRI mice; settings: liver homogenate
Outline: as §1

Row | In Vivo BRh 30 mg/kg 1 h, remaining FAAH activity [1] | In Vitro FAAH activity, 100 nM [2] | In Vivo LVh 30 mg/kg 1 h, remaining FAAH activity [3] | In Vivo BRh 3 mg/kg 8 h, remaining FAAH activity [1] | In Vivo LVh 3 mg/kg 8 h, remaining FAAH activity [3] | Structure (SMILES) | In Vitro FAAH activity, 10 uM ([2]; 10 uM test compound)
1 | 0.4 % of control | 0 % of control | 2.7 % of control |  |  | CCCCN(C)C(=O)n1nnc2ccccc21 [Compound 75, N-butyl-N-methyl-1H-benzo[d][1,2,3]triazole-1-carboxamide] | 
2 |  | 0 % of control |  | 3.4 % of control | 4 % of control | O=C(NC1CCCCC1)n1nnc2ccccc21 [Compound 87, N-cyclohexyl-1H-benzo[d][1,2,3]triazole-1-carboxamide] | 
3 |  | 0.2 % of control |  | 99.1 % of control | 71.4 % of control | Cc1ccc(OC2CCN(C(=O)n3nnc4ccccc43)CC2)cc1 [Compound 99, (1H-benzo[d][1,2,3]triazol-1-yl)(4-(p-tolyloxy)piperidin-1-yl)methanone] | 
4 |  | 0.2 % of control |  | 68.1 % of control | 40.5 % of control | O=C(N1CCC(CCc2ccccc2)CC1)n1nnc2ccccc21 [Compound 100, (1H-benzo[d][1,2,3]triazol-1-yl)(4-phenethylpiperidin-1-yl)methanone] | 
5 |  | 0.1 % of control |  | 102.9 % of control | 109.9 % of control | O=C(N1CCC(c2ccncc2)CC1)n1nnc2ccccc21 [Compound 114, (1H-benzo[d][1,2,3]triazol-1-yl)(4-(pyridin-4-yl)piperidin-1-yl)methanone] | 
6 |  | 0 % of control |  | 0.2 % of control | 2.2 % of control | O=C(NC12CC3CC(CC(C3)C1)C2)n1nnc2ccccc21 [Compound 126, N-adamantyl-1H-benzo[d][1,2,3]triazole-1-carboxamide] | 
7 |  | 0.1 % of control |  | 111.5 % of control | 107.3 % of control | O=C(N1CCN(C2CCCCC2)CC1)n1nnc2ccccc21 [Compound 127, (1H-benzo[d][1,2,3]triazol-1-yl)(4-cyclohexylpiperazin-1-yl)methanone] | 
8 |  | 0.1 % of control |  | 26.5 % of control | 30.1 % of control | O=C(N1CCC(OCCCc2ccccc2)CC1)n1nnc2ccccc21 [Compound 135, (1H-benzo[d][1,2,3]triazol-1-yl)(4-(3-phenylpropoxy)piperidin-1-yl)methanone] | 
9 |  | 2.5 % of control |  | 0.4 % of control | 0.7 % of control | CN(C(=O)n1nnc2ccccc21)C1CCC2(CC1)OCC(C)(C)CO2 [Compound 143, N-(3,3-dimethyl-1,5-dioxaspiro[5.5]undec-9-yl)-N-methyl-1H-benzotriazole-1-carboxamide] | 

The remaining lines, values behind:

Row | Structure (SMILES) | In Vivo BRh 30 mg/kg 1 h, remaining FAAH activity [1] | In Vitro FAAH activity, 100 nM [2] | In Vivo LVh 30 mg/kg 1 h, remaining FAAH activity [3] | In Vivo BRh 3 mg/kg 8 h, remaining FAAH activity [1] | In Vivo LVh 3 mg/kg 8 h, remaining FAAH activity [3] | In Vitro FAAH activity, 10 uM ([2]; 10 uM test compound)
10 | CN(C(=O)n1nnc2ccccc21)c1ccc(Cl)cc1 [Compound 63, N-(4-chlorophenyl)-N-methyl-1H-benzo[d][1,2,3]triazole-1-carboxamide] | 57 % of control | 12.6 % of control | 49.7 % of control |  |  | 
11 | CN(C(=O)n1nnc2ccccc21)c1ccc(F)cc1F [Compound 70, N-(2,4-difluorophenyl)-N-methyl-1H-benzo[d][1,2,3]triazole-1-carboxamide] | 52 % of control | 1.9 % of control | 42.5 % of control |  |  | 
12 | CC1(C)COCN1C(=O)n1nnc2ccccc21 [Compound 71, (1H-benzo[d][1,2,3]triazol-1-yl)(4,4-dimethyloxazolidin-3-yl)methanone] | 0.3 % of control | 2.3 % of control | 2.2 % of control | 1.8 % of control | 2.5 % of control | 0.1 % of control
13 | O=C(N1CCC(Cc2ccccc2)CC1)n1cnc(-c2ccc(F)cc2F)n1 [Compound 79, (4-benzylpiperidin-1-yl)(3-(2,4-difluorophenyl)-1H-1,2,4-triazol-1-yl)methanone] | 10.3 % of control | 0.8 % of control | 9.8 % of control | 70 % of control | 45.2 % of control | 
14 | O=C(N1CCC(CCCc2ccccc2)CC1)n1nnc2ccccc21 [Compound 110, (1H-benzo[d][1,2,3]triazol-1-yl)(4-(3-phenylpropyl)piperidin-1-yl)methanone] |  | 0.1 % of control |  | 51.7 % of control | 10.2 % of control | 
15 | CN(C(=O)n1cnc(-c2ccc(C(N)=O)cc2)c1)c1ccccc1 [Compound 113, 4-(4-carbamoylphenyl)-N-methyl-N-phenyl-1H-imidazole-1-carboxamide] |  | 90.3 % of control |  | 84.1 % of control | 32.3 % of control | 
16 | O=C(N1CCC(c2nc(-c3cccnc3)no2)CC1)n1nnc2ccccc21 [Compound 116, (1H-benzo[d][1,2,3]triazol-1-yl)(4-(3-(pyridin-3-yl)-1,2,4-oxadiazol-5-yl)piperidin-1-yl)methanone] |  | 0.5 % of control |  | 126.2 % of control | 113.2 % of control | 
17 | O=C(N1CCN(Cc2ccc(F)cc2)CC1)n1nnc2ccccc21 [Compound 121, (1H-benzo[d][1,2,3]triazol-1-yl)(4-(4-fluorobenzyl)piperazin-1-yl)methanone] |  | 0 % of control |  | 118.6 % of control | 116.1 % of control | 
18 | CN(CCCCCc1ccccc1)C(=O)n1nnc2ccccc21 [Compound 129, N-methyl-N-(5-phenylpentyl)-1H-benzo[d][1,2,3]triazole-1-carboxamide] |  | 0 % of control |  | 2.5 % of control | 2 % of control | 
19 | CN1CCN(c2ccc(-c3ncn(C(=O)N4CCOCC4)n3)cc2)CC1 [Compound 139, (3-(4-(4-methylpiperazin-1-yl)phenyl)-1H-1,2,4-triazol-1-yl)(morpholino)methanone] |  | 80.2 % of control |  | 97.1 % of control | 105.7 % of control | 
20 | COc1ccc(OCCC2CCN(C(=O)n3nnc4ccccc43)CC2)cc1 [Compound 144, (1H-benzo[d][1,2,3]triazol-1-yl)(4-(2-(4-methoxyphenoxy)ethyl)piperidin-1-yl)methanone] |  | 0.1 % of control |  | 68.2 % of control | 17.6 % of control | 
